ChEMBL document CHEMBL4765280, “Carvedilol serves as a novel CYP1B1 inhibitor, a systematic drug repurposing approach through structure-based virtual screening and experimental verification” (Eur J Med Chem, 2020)

Assays:
Cytochrome P450 1B1 [1] = molecular target: T1, Cytochrome P450 1B1 (Homo sapiens, UniProt Q16678); assay: Inhibition of human CYP1B1 at 5 uM using 7-ethyl-O-resorufin as substrate incubated for 30 mins in presence of NADPH by EROD assay; details: 0.5 h
T1 sequence (Q16678 whole entry): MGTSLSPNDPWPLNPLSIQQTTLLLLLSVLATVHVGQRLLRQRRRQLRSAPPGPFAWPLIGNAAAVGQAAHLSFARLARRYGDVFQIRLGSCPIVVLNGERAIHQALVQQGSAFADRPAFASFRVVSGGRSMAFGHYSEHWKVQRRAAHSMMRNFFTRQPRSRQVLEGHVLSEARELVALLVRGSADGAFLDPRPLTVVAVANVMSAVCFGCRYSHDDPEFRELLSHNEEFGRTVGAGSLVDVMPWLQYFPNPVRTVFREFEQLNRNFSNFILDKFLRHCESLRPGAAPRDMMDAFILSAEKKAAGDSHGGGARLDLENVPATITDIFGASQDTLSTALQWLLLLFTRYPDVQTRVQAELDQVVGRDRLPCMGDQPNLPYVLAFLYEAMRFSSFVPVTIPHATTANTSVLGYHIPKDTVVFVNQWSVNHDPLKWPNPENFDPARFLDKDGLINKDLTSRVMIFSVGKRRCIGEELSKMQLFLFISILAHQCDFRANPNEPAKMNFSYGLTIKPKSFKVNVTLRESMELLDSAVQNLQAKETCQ

Cytochrome P450 1B1 [2] = molecular target: T1, Cytochrome P450 1B1; assay: Inhibition of human CYP1B1 using 7-ethyl-O-resorufin as substrate incubated for 30 mins in presence of NADPH by EROD assay
A549/Taxol = assay: Cytotoxicity against human A549/Taxol cells assessed as reduction in cell viability after 72 hrs by MTT assay; format: functional, cell-based; details: dose 5-10 µM
A549 = assay: Cytotoxicity against human A549 cells assessed as reduction in cell viability after 72 hrs by MTT assay; format: functional, cell-based; details: dose 5-10 µM

| Compound | inhibition (INH) (Cytochrome P450 1B1 [1]) | IC50 (Cytochrome P450 1B1 [2]) [µM] | Activity (A549/Taxol) | Activity (A549) |
| --- | --- | --- | --- | --- |
| CCN(CCO)CCCC(C)Nc1ccnc2cc(Cl)ccc12.O=S(=O)(O)O (stereo not given) [HYDROXYCHLOROQUINE SULFATE] | Not Active | – | – | – |
| CC(CCc1ccccc1)NCC(O)c1ccc(O)c(C(N)=O)c1 (stereo not given) [LABETALOL] | Not Active | – | – | – |
| C#C[C@]1(O)CC[C@H]2[C@@H]3CCc4cc(O)ccc4[C@H]3CC[C@@]21C [ETHINYL ESTRADIOL] | Not Active | – | – | – |
| COc1ccccc1OCCNCC(O)COc1cccc2[nH]c3ccccc3c12 (stereo not given) [CARVEDILOL] | Active | 1.1 | Dose-dependent effect | Dose-dependent effect |
| C=C[C@H]1C[N@@]2CC[C@H]1C[C@@H]2[C@@H](O)c1ccnc2ccc(OC)cc12 [QUINIDINE] | Not Active | – | – | – |
| CCc1cc2c(cc1CC)CC(NC[C@H](O)c1ccc(O)c3[nH]c(=O)ccc13)C2 [INDACATEROL] | Active | 59.2 | – | – |
